According to patent publication US12606541B2, “PPARg modulators and methods of use” (Eisai R&D Management Co., Ltd., priority 2020, dated 2026):

Assays:
[1] = target: T1, His6-TEV-PPARγ-(234-505) (Homo sapiens, UniProt P37231); test: TR-FRET Assay to Measure Co-R Peptide Recruitment to PPARγ; format: biochemical; details: Co-R peptide (SMRT-ID2) recruitment; top final concentration 20 μM; read-out: TR-FRET i-Ag; AC50
T1 construct: The His6-TEV-PPARγ-(234-505) protein for assay was expressed and purified; TEV cleavage site (N); made in house
T1 sequence (P37231 234-505): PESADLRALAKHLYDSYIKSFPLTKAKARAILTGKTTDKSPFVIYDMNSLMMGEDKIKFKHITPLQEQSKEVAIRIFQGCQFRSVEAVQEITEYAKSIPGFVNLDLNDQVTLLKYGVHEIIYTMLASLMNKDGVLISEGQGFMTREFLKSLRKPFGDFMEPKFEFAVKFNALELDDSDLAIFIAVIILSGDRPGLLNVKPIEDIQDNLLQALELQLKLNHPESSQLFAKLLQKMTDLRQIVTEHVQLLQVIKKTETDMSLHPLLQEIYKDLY
Method in brief: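 His-tagged PPARγ (or controls) was preincubated with compound for 20 minutes at room temperature, then 5 nM anti-His terbium antibody and 200 nM FITC-labeled SMRT-ID2 corepressor peptide (final) were added for a further hour. TR-FRET signal was normalized to percent response using 500 nM T0070907 and DMSO controls.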

[2] = tested on: UM-UC-9 engineered cells; test: Cell proliferation / short-term viability assay, CellTiter-Glo 144 h; format: cell-based, human; details: Homo sapiens, UM-UC-9, 144 h, read-out: CTGlo 144 h UMUC9.5, G150
Method in brief: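 UM-UC-9 engineered assay-ready cells seeded at 500 cells/well in high-glucose DMEM/10% FBS, treated from dose-response plates, grown at 37° C, 5% CO2. CellTiter-Glo 2.0 luminescence read on day 7, with a day-0 pretreatment plate as T0 reference and DMSO wells as negative control.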

SMILES	AC50 [1]	IC50 [2]
COc1cc(-c2cc(C(=O)N3CCC(C(=O)NCc4c(F)ccc(F)c4F)CC3)n[nH]2)c(Cl)cn1 [Example 123, 1-(5-(5-chloro-2-methoxypyridin-4-yl)-1H-pyrazole-3-carbonyl)-N-(2,3,6-trifluorobenzyl)piperidine-4-carboxamide]	0.0128 µM	0.1 µM
COc1cc(-c2cc(C(=O)N3CCC(C(=O)NCc4cn(C)nc4C)CC3)n[nH]2)c(Cl)cn1 [Example 124, 1-(5-(5-chloro-2-methoxypyridin-4-yl)-1H-pyrazole-3-carbonyl)-N-((1,3-dimethyl-1H-pyrazol-4-yl)methyl)piperidine-4-carboxamide]	0.982 µM	5.02 µM
COc1cc(-c2cc(C(=O)N3CCC(C(=O)NCc4cc(F)ccc4Cl)CC3)n[nH]2)c(Cl)cn1 [Example 125, 1-(5-(5-chloro-2-methoxypyridin-4-yl)-1H-pyrazole-3-carbonyl)-N-(2-chloro-5-fluorobenzyl)piperidine-4-carboxamide]	0.0246 µM	0.301 µM
COc1cc(-c2cc(C(=O)N3CCC(C(=O)Nc4cnn(CC(F)(F)F)c4)CC3)n[nH]2)c(Cl)cn1 [Example 126, 1-(5-(5-chloro-2-methoxypyridin-4-yl)-1H-pyrazole-3-carbonyl)-N-(1-(2,2,2-trifluoroethyl)-1H-pyrazol-4-yl)piperidine-4-carboxamide]	0.707 µM	2.46 µM
COc1cc(-c2cc(C(=O)N3CCC(C(=O)NCc4ccc(F)cn4)CC3)n[nH]2)c(Cl)cn1 [Example 127, 1-(5-(5-chloro-2-methoxypyridin-4-yl)-1H-pyrazole-3-carbonyl)-N-((5-fluoropyridin-2-yl)methyl)piperidine-4-carboxamide]	0.644 µM	2.93 µM
COc1cc(-c2cc(C(=O)N3CCC(C(=O)NC4(C#N)CCC4)CC3)n[nH]2)c(Cl)cn1 [Example 128, 1-(5-(5-chloro-2-methoxypyridin-4-yl)-1H-pyrazole-3-carbonyl)-N-(1-cyanocyclobutyl)piperidine-4-carboxamide]	0.864 µM	2.56 µM
COc1cc(-c2cc(C(=O)N3CCC(C(=O)NCc4cccc(C(F)(F)F)n4)CC3)n[nH]2)c(Cl)cn1 [Example 129, 1-(5-(5-chloro-2-methoxypyridin-4-yl)-1H-pyrazole-3-carbonyl)-N-((6 (trifluoromethyl)pyridin-2-yl)methyl)piperidine-4-carboxamide]	0.273 µM	1.02 µM
COc1cc(-c2cc(C(=O)N3CCC(C(=O)NCc4ncccc4C(F)(F)F)CC3)n[nH]2)c(Cl)cn1 [Example 130, 1-(5-(5-chloro-2-methoxypyridin-4-yl)-1H-pyrazole-3-carbonyl)-N-((3-(trifluoromethyl)pyridin-2-yl)methyl)piperidine-4-carboxamide]	0.0759 µM	0.685 µM
COc1cc(-c2cc(C(=O)N3CCC(C(=O)NCc4cnccc4C)CC3)n[nH]2)c(Cl)cn1 [Example 131, 1-(5-(5-chloro-2-methoxypyridin-4-yl)-1H-pyrazole-3-carbonyl)-N-((4-methylpyridin-3-yl)methyl)piperidine-4-carboxamide]	0.494 µM	2.61 µM
COc1cc(-c2cc(C(=O)N3CCC(C(=O)N[C@@H]4C[C@H]4c4ccccc4)CC3)n[nH]2)c(Cl)cn1 [Example 133, 1-(5-(5-chloro-2-methoxypyridin-4-yl)-1H-pyrazole-3-carbonyl)-N-((1R,2S)-2-phenylcyclopropyl)piperidine-4-carboxamide]	0.292 µM	1.74 µM
COc1cc(-c2cc(C(=O)N3CCC(C(=O)NCC4(O)CCCCC4)CC3)n[nH]2)c(Cl)cn1 [Example 134, 1-(5-(5-chloro-2-methoxypyridin-4-yl)-1H-pyrazole-3-carbonyl)-N-((1-hydroxycyclohexyl)methyl)piperidine-4-carboxamide]	0.238 µM	1.09 µM
COc1cc(-c2cc(C(=O)N3CCC(C(=O)NCc4cnc(C)o4)CC3)n[nH]2)c(Cl)cn1 [Example 136, 1-(5-(5-chloro-2-methoxypyridin-4-yl)-1H-pyrazole-3-carbonyl)-N-((2-methyloxazol-5-yl)methyl)piperidine-4-carboxamide]	0.887 µM	6.1 µM
COc1cc(-c2cc(C(=O)N3CCC(C(=O)NCc4cccc5ccnn45)CC3)n[nH]2)c(Cl)cn1 [Example 137, 1-(5-(5-chloro-2-methoxypyridin-4-yl)-1H-pyrazole-3-carbonyl)-N-(pyrazolo[1,5-a]pyridin-7-ylmethyl)piperidine-4-carboxamide]	0.13 µM	0.678 µM
COc1cc(-c2cc(C(=O)N3CCC(C(=O)NCc4ncc(Cl)cn4)CC3)n[nH]2)c(Cl)cn1 [Example 138, 1-(5-(5-chloro-2-methoxypyridin-4-yl)-1H-pyrazole-3-carbonyl)-N-((5-chloropyrimidin-2-yl)methyl)piperidine-4-carboxamide]	0.501 µM	1.47 µM
COc1cc(-c2cc(C(=O)N3CCC(C(=O)NCc4ccc(C(F)(F)F)cn4)CC3)n[nH]2)c(Cl)cn1 [Example 139, 1-(5-(5-chloro-2-methoxypyridin-4-yl)-1H-pyrazole-3-carbonyl)-N-((5-(trifluoromethyl)pyridin-2-yl)methyl)piperidine-4-carboxamide]	0.336 µM	1.79 µM
COc1cc(-c2cc(C(=O)N3CCC(C(=O)NCc4ncccc4Cl)CC3)n[nH]2)c(Cl)cn1 [Example 140, 1-(5-(5-chloro-2-methoxypyridin-4-yl)-1H-pyrazole-3-carbonyl)-N-((3-chloropyridin-2-yl)methyl)piperidine-4-carboxamide]	0.0854 µM	0.634 µM
COc1cc(-c2cc(C(=O)N3CCC(C(=O)NCc4cc(C)n(C)n4)CC3)n[nH]2)c(Cl)cn1 [Example 141, 1-(5-(5-chloro-2-methoxypyridin-4-yl)-1H-pyrazole-3-carbonyl)-N-((1,5-dimethyl-1H-pyrazol-3-yl)methyl)piperidine-4-carboxamide]	0.679 µM	2.6 µM
COc1cc(-c2cc(C(=O)N3CCC(C(=O)NC(C)COc4ccc(Cl)cc4)CC3)n[nH]2)c(Cl)cn1 (stereo not shown) [Example 142, 1-(5-(5-chloro-2-methoxypyridin-4-yl)-1H-pyrazole-3-carbonyl)-N-(1-(4-chlorophenoxy)propan-2-yl)piperidine-4-carboxamide]	0.903 µM	3.14 µM
COc1cc(-c2cc(C(=O)N3CCC(C(=O)NC4CCCC(F)(F)C4)CC3)n[nH]2)c(Cl)cn1 (stereo not shown) [Example 143, 1-(5-(5-chloro-2-methoxypyridin-4-yl)-1H-pyrazole-3-carbonyl)-N-(3,3-difluorocyclohexyl)piperidine-4-carboxamide]	0.91 µM	3.31 µM
COc1cc(-c2cc(C(=O)N3CCC(C(=O)NCc4ncccc4F)CC3)n[nH]2)c(Cl)cn1 [Example 146, 1-(5-(5-chloro-2-methoxypyridin-4-yl)-1H-pyrazole-3-carbonyl)-N-((3-fluoropyridin-2-yl)methyl)piperidine-4-carboxamide]	0.262 µM	1.41 µM
COc1cc(-c2cc(C(=O)N3CCC(C(=O)Nc4cccc(C(F)F)c4)CC3)n[nH]2)c(Cl)cn1 [Example 147, 1-(5-(5-chloro-2-methoxypyridin-4-yl)-1H-pyrazole-3-carbonyl)-N-(3-(difluoromethyl)phenyl)piperidine-4-carboxamide]	0.268 µM	0.955 µM
COc1cc(-c2cc(C(=O)N3CCC(C(=O)NCC4CC(F)(F)C4)CC3)n[nH]2)c(Cl)cn1 [Example 148, 1-(5-(5-chloro-2-methoxypyridin-4-yl)-1H-pyrazole-3-carbonyl)-N-((3,3-difluorocyclobutyl)methyl)piperidine-4-carboxamide]	0.712 µM	3.17 µM
COc1cc(-c2cc(C(=O)N3CCC(C(=O)NCC(F)(F)c4ccccc4)CC3)n[nH]2)c(Cl)cn1 [Example 149, 1-(5-(5-chloro-2-methoxypyridin-4-yl)-1H-pyrazole-3-carbonyl)-N-(2,2-difluoro-2-phenylethyl)piperidine-4-carboxamide]	0.0493 µM	0.418 µM
COc1cc(-c2cc(C(=O)N3CCC(C(=O)NCc4ccc(OC(F)F)cc4)CC3)n[nH]2)c(Cl)cn1 [Example 151, 1-(5-(5-chloro-2-methoxypyridin-4-yl)-1H-pyrazole-3-carbonyl)-N-(4-(difluoromethoxy)benzyl)piperidine-4-carboxamide]	0.0481 µM	0.539 µM
COc1cc(-c2cc(C(=O)N3CCC(C(=O)NCc4ccc5ncoc5c4)CC3)n[nH]2)c(Cl)cn1 [Example 152]	0.853 µM	0.825 µM
COc1cc(-c2cc(C(=O)N3CCC(C(=O)N[C@H](C)c4cccc(F)c4)CC3)n[nH]2)c(Cl)cn1 [Example 153, (R)-1-(5-(5-chloro-2-methoxypyridin-4-yl)-1H-pyrazole-3-carbonyl)-N-(1-(3-fluorophenyl)ethyl)piperidine-4-carboxamide]	0.621 µM	2.09 µM
